Here are results for 17 molecules from patent US20210179578A1, “OX1 ANTAGONISTS” (Heptares Therapeutics Limited, priority 2017, published 2021).

This experiment concerns the target T1, human OX2 receptor (Homo sapiens, UniProt O43614).
T1 sequence (O43614 1-444): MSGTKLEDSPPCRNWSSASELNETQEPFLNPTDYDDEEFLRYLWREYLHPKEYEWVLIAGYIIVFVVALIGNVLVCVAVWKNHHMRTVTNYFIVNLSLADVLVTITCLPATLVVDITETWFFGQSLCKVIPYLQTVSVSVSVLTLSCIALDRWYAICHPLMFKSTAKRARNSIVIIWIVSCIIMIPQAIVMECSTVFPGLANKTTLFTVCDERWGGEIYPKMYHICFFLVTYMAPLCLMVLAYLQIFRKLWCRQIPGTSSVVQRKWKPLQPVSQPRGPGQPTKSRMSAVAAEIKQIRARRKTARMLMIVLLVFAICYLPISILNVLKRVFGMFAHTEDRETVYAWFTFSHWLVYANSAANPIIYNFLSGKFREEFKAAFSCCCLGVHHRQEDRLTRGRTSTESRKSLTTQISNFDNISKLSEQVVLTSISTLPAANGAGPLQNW
Description: IPone accumulation assay, CHO cells expressing OX2 (antagonism of orexin A). The class given is cell-based. The note with it: CHO human OX2, orexin A EC80 challenge (40 nM), read-out: fpKb average OX2 (converted). The protocol: Generation of CHO stable cell lines expressing the human OX1R and OX2R. Stable cell lines for the human OX1R and OX2R receptors were generated through the transfection of CHO cells using the transfection reagent Genejuice (Novagen number 70967) and cDNA coding for either the human OX1R or OX2R. Cells were cultured in Sigma Nutrient Mixture F-12 Ham media (catalog number N6658) supplemented with 10% heat-inactivated FBS. Forty-eight hours after transfection, cells were harvested and placed under geneticin selection by culturing in Sigma Nutrient Mixture F-12 Ham media supplemented with 10% heat-inactivated FBS and geneticin (ThermoFisher Catalog number: 10131035). Selection of the final stable clone for each receptor was made on the basis of receptor expression, assay signal to noise and robustness though increasing passage. Selected clones for the human OX1R and OX2R were then frozen down into liquid nitrogen using Cell Freezing Medium-DMSO (Sigma-Aldrich catalog number: C6164).
IPone accumulation assay. A CHO cell line stably expressing either human OX1 or OX2 receptor was used with the IPone HTRF assay kit (CisBio: Part #62IPAPEJ) to measure receptor activation. The assay was optimised to measure the ability (potency; fpKb) of antagonists to reduce agonist (orexin A)-induced inositol phosphate turnover. Briefly, cells were plated onto half area 96-well white walled plates at a density of 12,500 cells/well. Sixteen hours post-plating cell growth media was replaced with antagonist concentration-response curve diluted in stimulation buffer (supplied with the kit). Cells were incubated in a humidified incubator (37° C.) for 30 min before an EC80 challenge concentration (˜20 nM (OX1) and 40 nM (OX2)) of orexin A (Tocris catalogue number 1455). After 30 min stimulation in a humidified incubator (37° C.) the assay was terminated by the addition of detection mixture as per manufacturer's instructions. The concentration of compound which reduced orexin-A stimulated turnover of inositol phosphates by 50% (IC50) was calculated by fitting to a four parameter sigmoidal dose response curve. The IC50 values were converted to fpKB values using the orexin A pEC50 value estimated on each plate as well as the challenge concentration interpolated from the orexin A control curve.
Turning to `COc1cc(F)c(CN2C(=O)N(c3cnc(OC)c(S(C)(=O)=O)c3)CCc3c(F)cccc32)c(F)c1F` [Example 15, 6-fluoro-3-[6-methoxy-5-(methylsulfonyl)pyridin-3-yl]-1-(2,3,6-trifluoro-4-methoxybenzyl)-1,3,4,5-tetrahydro-2H-1,3-benzodiazepin-2-one], the Kb was > 3160 nM.
On to `COc1cc(F)c(CN2C(=O)N(c3cnc(OC)c(S(C)(=O)=O)c3)CCc3c(F)cccc32)c(F)c1` [Example 16, 1-(2,6-difluoro-4-methoxybenzyl)-6-fluoro-3-[6-methoxy-5-(methylsulfonyl)pyridin-3-yl]-1,3,4,5-tetrahydro-2H-1,3-benzodiazepin-2-one], for which the Kb is > 3980 nM.
`COc1ncc(N2CCc3c(F)cccc3N(Cc3c(C)cc(Br)cc3F)C2=O)cc1S(C)(=O)=O` [Example 17, 1-(4-bromo-2-fluoro-6-methylbenzyl)-6-fluoro-3-[6-methoxy-5-(methylsulfonyl)pyridin-3-yl]-1,3,4,5-tetrahydro-2H-1,3-benzodiazepin-2-one]: the Kb is > 2510 nM.
To `COc1ncc(N2CCc3c(F)cccc3N(Cc3c(C)cc(F)cc3F)C2=O)cc1S(C)(=O)=O` [Example 18, 1-(2,4-difluoro-6-methylbenzyl)-6-fluoro-3-[6-methoxy-5-(methylsulfonyl)pyridin-3-yl]-1,3,4,5-tetrahydro-2H-1,3-benzodiazepin-2-one] belongs > 3160 nM; to `COc1nc(OC)c(C(C)(F)F)cc1N1CCc2c(F)cccc2N(Cc2c(F)cc(Br)cc2F)C1=O` [Example 23, 1-(4-bromo-2,6-difluorobenzyl)-3-[5-(1,1-difluoroethyl)-2,6-dimethoxypyridin-3-yl]-6-fluoro-1,3,4,5-tetrahydro-2H-1,3-benzodiazepin-2-one], > 1580 nM; to `COCc1cc(F)c(CN2C(=O)N(c3cc(C(C)(F)F)c(OC)nc3OC)CCc3c(F)cccc32)c(F)c1` [Example 24, 3-[5-(1,1-difluoroethyl)-2,6-dimethoxypyridin-3-yl]-1-[2,6-difluoro-4-(methoxymethyl)benzyl]-6-fluoro-1,3,4,5-tetrahydro-2H-1,3-benzodiazepin-2-one], > 3160 nM.
Then `COc1cc(F)c(CN2C(=O)N(c3cc(S(C)(=O)=O)c(OC)nc3OC)CCc3c(F)cccc32)c(F)c1` [Example 25, 1-(2,6-difluoro-4-methoxybenzyl)-3-[2,6-dimethoxy-5-(methylsulfonyl)pyridin-3-yl]-6-fluoro-1,3,4,5-tetrahydro-2H-1,3-benzodiazepin-2-one], with > 3980 nM; and `CSc1cc(N2CCc3c(F)cccc3N(Cc3c(F)cc(Br)cc3F)C2=O)ccc1C` [Example 26, 1-(4-bromo-2,6-difluorobenzyl)-6-fluoro-3-[4-methyl-3-(methylsulfanyl)phenyl]-1,3,4,5-tetrahydro-2H-1,3-benzodiazepin-2-one], with > 794 nM; and `Cc1ccc(N2CCc3c(F)cccc3N(Cc3c(F)cc(Br)cc3F)C2=O)cc1S(C)(=O)=O` [Example 27, 1-(4-bromo-2,6-difluorobenzyl)-6-fluoro-3-[4-methyl-3-(methylsulfonyl)phenyl]-1,3,4,5-tetrahydro-2H-1,3-benzodiazepin-2-one], with > 3160 nM.
Then `CCCc1cc(F)c(CN2C(=O)N(c3ccc(C)c(S(C)(=O)=O)c3)CCc3c(F)cccc32)c(F)c1` [Example 28, 1-(2,6-difluoro-4-propylbenzyl)-6-fluoro-3-[4-methyl-3-(methylsulfonyl)phenyl]-1,3,4,5-tetrahydro-2H-1,3-benzodiazepin-2-one], with > 3980 nM; and `Cc1cc(C)c(S(C)(=O)=O)cc1N1CCc2ccccc2N(Cc2c(F)cc(Br)cc2F)C1=O` [Example 29, 1-(4-bromo-2,6-difluorobenzyl)-3-[2,4-dimethyl-5-(methylsulfonyl)phenyl]-1,3,4,5-tetrahydro-2H-1,3-benzodiazepin-2-one], with 398 nM.
As to `Cc1cc(C)c(S(C)(=O)=O)cc1N1CCc2ccccc2N(Cc2c(F)cc(OC(C)C)cc2F)C1=O` [Example 30, 1-[2,6-difluoro-4-(propan-2-yloxy)benzyl]-3-[2,4-dimethyl-5-(methylsulfonyl)phenyl]-1,3,4,5-tetrahydro-2H-1,3-benzodiazepin-2-one], the Kb was 794 nM.
Then `Cc1cc(C)c(S(C)(=O)=O)cc1N1CCc2c(F)cccc2N(Cc2c(F)cc(Br)cc2F)C1=O` [Example 31, 1-(4-bromo-2,6-difluorobenzyl)-3-[2,4-dimethyl-5-(methylsulfonyl)phenyl]-6-fluoro-1,3,4,5-tetrahydro-2H-1,3-benzodiazepin-2-one], with > 316 nM; and `Cc1ncc(N2CCc3c(F)cccc3N(Cc3c(F)cc(Br)cc3F)C2=O)cc1C(C)(F)F` [Example 32, 1-(4-bromo-2,6-difluorobenzyl)-3-[5-(1,1-difluoroethyl)-6-methylpyridin-3-yl]-6-fluoro-1,3,4,5-tetrahydro-2H-1,3-benzodiazepin-2-one], with > 631 nM.
To `COCc1cc(F)c(CN2C(=O)N(c3cnc(C)c(C(C)(F)F)c3)CCc3c(F)cccc32)c(F)c1` [Example 33, 3-[5-(1,1-difluoroethyl)-6-methylpyridin-3-yl]-1-[2,6-difluoro-4-(methoxymethyl)benzyl]-6-fluoro-1,3,4,5-tetrahydro-2H-1,3-benzodiazepin-2-one] belongs 1000 nM; to `CCCc1cc(F)c(CN2C(=O)N(c3cnc(C)c(C(C)(F)F)c3)CCc3c(F)cccc32)c(F)c1` [Example 34, 3-[5-(1,1-difluoroethyl)-6-methylpyridin-3-yl]-1-(2,6-difluoro-4-propylbenzyl)-6-fluoro-1,3,4,5-tetrahydro-2H-1,3-benzodiazepin-2-one], > 2510 nM.
To `Cc1ncc(N2CCc3c(F)cccc3N(Cc3c(F)cc(Br)cc3F)C2=O)cc1OC(F)F` [Example 37, 1-(4-bromo-2,6-difluorobenzyl)-3-[5-(difluoromethoxy)-6-methylpyridin-3-yl]-6-fluoro-1,3,4,5-tetrahydro-2H-1,3-benzodiazepin-2-one] belongs > 3980 nM.
